Laboratory results taken from patent US12583891B2, “Peptides and methods for the treatment of diabetes” (IMCYSE SA, priority 2017, dated 2026).

Legend:
[1] = Reductase (reducing) activity of peptides, fluorescent FITC-peptide assay; assay type: biochemical; details: fluorescent FITC-peptide disulfide reduction; dithiothreitol control = 100%
Protocol: The reductase activity of the peptides is determined using a fluorescent described in Tomazzolli et al. (2006) Anal. Biochem. 350, 105-112. Two peptides with a FITC label become self-quenching when they covalently attached to each other via a disulfide bridge. Upon reduction by a peptide in accordance with the present invention, the reduced individual peptides become fluorescent again.
Control experiments were performed with dithiothreitol (100% reducing activity) and water (100% reducing activity).

[2] = system: CD4+ T cell line from a T1D patient (T1D07); assay: Interferon gamma release by cytolytic CD4+ T cell line; assay type: cell-based, human; details: for IFN-gamma (pg/ml), Stimulus 1: T cell line primed with p17-001, after 12 stimulations, co-culture with autologous LCL B cells loaded (2 μM) with peptide, supernatant after 24 hours, multiplex assay
Protocol: Interferon gamma is an important marker to characterise cytolytic CD4+ T cells. A specific CD4+ T cell line was obtained by priming and stimulating naïve CD4+ T cells from a T1D patient (T1D07) with peptide p17-001. After 12 stimulations, cells were co-cultured with autologous LCL B cells loaded (2 μM) with peptide p17-001 or p17-003. After 24 hours, supernatants were collected and IFN-gamma was measured by multiplex assay (see table 1 below).

[3] = system: CD4+ T cell lines from T1D patients; assay: FasL release by cytolytic CD4+ T cell lines; assay type: cell-based, human; details: for FasL expression (pg/ml) Stimulation 1: day 11 of stimulation 1; for FasL expression (pg/ml) Stimulation 1 / FasL expression (pg/ml) Stimulation 2 / FasL expression (pg/ml) Stimulation 3 / FasL expression (pg/ml) Stimulation 4: restimulation with corresponding peptide presented by autologous B cells; for FasL expression (pg/ml) Stimulation 1 / FasL expression (pg/ml) Stimulation 2: supernatant after 24 h; for FasL expression (pg/ml) Stimulation 2: day 11 of stimulation 2; for FasL expression (pg/ml) Stimulation 3: day 11 of stimulation 3; for FasL expression (pg/ml) Stimulation 3 / FasL expression (pg/ml) Stimulation 4: supernatant after 72 h; for FasL expression (pg/ml) Stimulation 4: day 11 of stimulation 4
Protocol: The T cell line originally generated with p17 001 as described in example 3 above was divided and stimulated with peptide P17 003 or P17 001 over 4 successive in vitro stimulations using autologous LCL B cell line as APC. At day 11 of every stimulation (total of 4), cells were tested for FasL after restimulation with their corresponding peptide presented by autologous B cells. Supernatants were collected after 24 h (stimulation 1 and 2) or 72 h (stimulation 3 and 4) of co-culture.

[4] = system: PBMCs from T1D-patient T1D018 (IL5 positive fraction); assay: Cytokine release in cell lines generated from T1D-patient PBMCs (MACSplex Cytokine 12 kit); assay type: cell-based, human; details: supernatant after 24 h, end of stimulation 10; FIG. 2
Protocol: (§1) PBMCs from T1D-patient T1D018 were stimulated in vitro either with P17001 peptide or P17003 peptide. These two populations specifically release […] after antigenic activation. After 6 stimulation cycles with the peptides, both cell lines were enriched for IL-5 producing cells with cytokine capture beads. The two populations of Interleukin-5 negative cells were used as controls.
(§2) These four populations are then tested for specific release of sFasL, Granzyme B and cytokines after stimulation with their cognate peptide (P17-001 or P17-003). Supernatants are collected after 24 h of culture and sFasL and Granzyme B are measured by ELISA (sFasL: Diaclone 851730010; Granzyme B: eBioscience BMS2027) and cytokines by MACSplex Cytokine 12 kit (Miltenyi, 130-099-169).
To determine if the in vitro cultured cells from T1D donors are specific for peptide P17001 or P17003, the release of cytokines, a hallmark for cell activation upon peptide stimulation, was investigated using MACSplex Cytokine 12 kit (Miltenyi, 130-099-169). Supernatant was collected after 24 h from the culture of T1D donor PBMCs in the absence or presence of the peptide. […] Specificity test was performed at the end of stimulation 10 (resting day). The result is presented as the difference in concentration of each cytokine in the condition without and with peptide.

[5] = system: PBMCs from T1D-patient T1D018 (IL5 positive cells); assay: sFasL release in cell lines generated from T1D-patient PBMCs; assay type: cell-based, human; details: IL5 positive cells after 6 stimulation cycles, restimulated 24 h with cognate peptide; ELISA; p<0,0001
Protocol: FIG. 1: Release of sFasL in cell lines generated with p17-003 or p17-001. Cells specific for p17-003 or p17-001 (IL5 positive cells; black histograms) were restimulated for 24 h with antigen presenting cells loaded with peptides p17-003 or p17-001, depending of the peptide used for their generation, and supernatant collected after 24 h of co-culture. IL-5 negative cells are for control PBMC populations (open histograms). Results represent mean+/−SD of sFasL concentration corrected per cell number.
as §1, §2

Row | Compound | reducing activity [1] [%] | IFN-gamma (pg/ml), Stimulus 1 [2] [pg/mL] | FasL expression (pg/ml) Stimulation 1 [3] [pg/mL] | FasL expression (pg/ml) Stimulation 2 [3] [pg/mL] | FasL expression (pg/ml) Stimulation 3 [3] [pg/mL] | FasL expression (pg/ml) Stimulation 4 [3] [pg/mL] | IFN-gamma produced after stimulation with p17 003 compared to p17 001 ([2]; ratio of Table 1 values) | eliciting peptide specific cells (cytokine release upon peptide stimulation) compared with P17001 [4] | sFasL release compared with cells generated by peptide p17-001 [5] [fold] | FasL (sFasL) expression compared to P17-001 ([3]; each of the four stimulations)
1 | O[C@H](CS)[C@H](O)CS (racemic) [dithiothreitol] | 100 | – | – | – | – | – | – | – | – | –
2 | HCPYC VR SLQPLALEGSLQKRG (HCPYCVRSLQPLALEGSLQKRG; peptide with redox motif and insulin T cell epitope) [P17 001, reference compound] | 68 | 11.1 ± 0.8 | 1335 ± 23.1 | 1144 ± 15.4 | 1227 ± 49.1 | 1008 ± 102 | – | – | – | –
3 | HCPYCSLQPLALEGSLQKRG (peptide with redox motif and insulin T cell epitope) [P17 003] | 65 | 29.7 ± 14.1 | 1795 ± 42.4 | 1812 ± 34.7 | 2063 ± 166 | 1526 ± 102 | about 3 times | more potent | 4.5 | significantly higher
